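Cells were grown in 96-well plates and exposed to each compound for 48 hours at five concentrations; endpoints were interpolated linearly between bracketing concentrations, or set to the highest concentration if not reached. TGI denotes the concentration required for complete inhibition of growth.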
Experiments:
Assay in all cases: growth of human tumour cells (NCI), 48 h
DU-145 prostate = tested on: DU-145 prostate
MDA-N = tested on: MDA-N
KM12 colon = tested on: KM12 colon
U251 CNS = tested on: U251 CNS
LOX IMVI melanoma = tested on: LOX IMVI melanoma
SNB-75 CNS = tested on: SNB-75 CNS
MALME-3M melanoma = tested on: MALME-3M melanoma
HCT-15 colon = tested on: HCT-15 colon
SN12C renal = tested on: SN12C renal
UACC-62 melanoma = tested on: UACC-62 melanoma
OVCAR-8 ovarian = tested on: OVCAR-8 ovarian
MCF7 breast = tested on: MCF7 breast
HCC-2998 colon = tested on: HCC-2998 colon
MDA-MB-231 breast = tested on: MDA-MB-231 breast
OVCAR-5 ovarian = tested on: OVCAR-5 ovarian
HT29 colon = tested on: HT29 colon
SK-MEL-2 melanoma = tested on: SK-MEL-2 melanoma
NCI-H460 lung = tested on: NCI-H460 lung
UACC-257 melanoma = tested on: UACC-257 melanoma
OVCAR-4 ovarian = tested on: OVCAR-4 ovarian
BT-549 breast = tested on: BT-549 breast
SK-MEL-28 melanoma = tested on: SK-MEL-28 melanoma
CCRF-CEM leukemia = tested on: CCRF-CEM leukemia
NCI-H522 lung = tested on: NCI-H522 lung
SF-539 CNS = tested on: SF-539 CNS
OVCAR-3 ovarian = tested on: OVCAR-3 ovarian
SK-MEL-5 melanoma = tested on: SK-MEL-5 melanoma
SW-620 colon = tested on: SW-620 colon
MOLT-4 leukemia = tested on: MOLT-4 leukemia
HCT-116 colon = tested on: HCT-116 colon
A498 renal = tested on: A498 renal
SF-295 CNS = tested on: SF-295 CNS
K-562 leukemia = tested on: K-562 leukemia
SNB-19 CNS = tested on: SNB-19 CNS
ACHN renal = tested on: ACHN renal
MDA-MB-435 = tested on: MDA-MB-435
A549 NSCLC = tested on: A549 NSCLC
UO-31 renal = tested on: UO-31 renal
IGROV1 ovarian = tested on: IGROV1 ovarian
PC-3 prostate = tested on: PC-3 prostate
SK-OV-3 ovarian = tested on: SK-OV-3 ovarian
TK-10 renal = tested on: TK-10 renal
HS 578T breast = tested on: HS 578T breast
M14 melanoma = tested on: M14 melanoma
T-47D breast = tested on: T-47D breast
786-0 renal = tested on: 786-0 renal
SR leukemia = tested on: SR leukemia
HL-60(TB) leukemia = tested on: HL-60(TB) leukemia
EKVX NSCLC = tested on: EKVX NSCLC
SF-268 CNS = tested on: SF-268 CNS
CAKI-1 renal = tested on: CAKI-1 renal
HOP-62 NSCLC = tested on: HOP-62 NSCLC
RPMI-8226 leukemia = tested on: RPMI-8226 leukemia
HOP-92 NSCLC = tested on: HOP-92 NSCLC
RXF 393 renal = tested on: RXF 393 renal
NCI-H23 lung = tested on: NCI-H23 lung
NCI/ADR-RES ovarian = tested on: NCI/ADR-RES ovarian
COLO 205 colon = tested on: COLO 205 colon
NCI-H226 lung = tested on: NCI-H226 lung

With `CN1CCN(c2c(Cl)cc(Cl)c3[nH]c4ccccc4c(=O)c23)CC1` the TGI (DU-145 prostate) was 16.6 µM, the TGI (MDA-N) was 20.7 µM and the TGI (KM12 colon) was 23 µM. For the same compound, the TGI (U251 CNS) was 19.7 µM, the TGI (LOX IMVI melanoma) was greater than 42.6 µM and the TGI (SNB-75 CNS) was 22.5 µM. It also gave a TGI (MALME-3M melanoma) of 6.67 µM, a TGI (HCT-15 colon) of 17.1 µM and a TGI (SN12C renal) of 21.5 µM. For the same compound, the TGI (UACC-62 melanoma) was 18.6 µM, the TGI (OVCAR-8 ovarian) was 27.9 µM and the TGI (MCF7 breast) was 15.8 µM. It also gave a TGI (HCC-2998 colon) of 19.4 µM, a TGI (MDA-MB-231 breast) of 28.7 µM and a TGI (OVCAR-5 ovarian) of 29.3 µM. For the same compound, the TGI (HT29 colon) was 16.1 µM, the TGI (SK-MEL-2 melanoma) was 28.1 µM and the TGI (NCI-H460 lung) was 24.1 µM. The TGI (UACC-257 melanoma) was 22.1 µM, the TGI (OVCAR-4 ovarian) was 46.2 µM and the TGI (BT-549 breast) was 31.2 µM. It also gave a TGI (SK-MEL-28 melanoma) of 26.8 µM, a TGI (CCRF-CEM leukemia) greater than 36.2 µM and a TGI (NCI-H522 lung) of 19.2 µM. The TGI (SF-539 CNS) was 15.3 µM, the TGI (OVCAR-3 ovarian) was 33.5 µM and the TGI (SK-MEL-5 melanoma) was 31.9 µM. The TGI (SW-620 colon) was 21.3 µM, the TGI (MOLT-4 leukemia) was 9.96 µM and the TGI (HCT-116 colon) was greater than 42.6 µM. It also gave a TGI (A498 renal) of 5.44 µM, a TGI (SF-295 CNS) of 20.3 µM and a TGI (K-562 leukemia) greater than 48.6 µM. It also gave a TGI (SNB-19 CNS) of 19.7 µM, a TGI (ACHN renal) of 17 µM and a TGI (MDA-MB-435) of 19.8 µM. For the same compound, the TGI (A549 NSCLC) was 32.9 µM, the TGI (UO-31 renal) was 17.3 µM and the TGI (IGROV1 ovarian) was 20.3 µM. The TGI (PC-3 prostate) was 23.3 µM, the TGI (SK-OV-3 ovarian) was 24.3 µM and the TGI (TK-10 renal) was 26.2 µM. It also gave a TGI (HS 578T breast) of 22.6 µM, a TGI (M14 melanoma) of 19.5 µM and a TGI (T-47D breast) of 38.5 µM. The TGI (786-0 renal) was greater than 43.3 µM, the TGI (SR leukemia) was greater than 100 µM and the TGI (HL-60(TB) leukemia) was 4.63 µM. It also gave a TGI (EKVX NSCLC) of 32.6 µM, a TGI (SF-268 CNS) of 20.2 µM and a TGI (CAKI-1 renal) of 20.6 µM. It also gave a TGI (HOP-62 NSCLC) of 19.5 µM, a TGI (RPMI-8226 leukemia) of 56.8 µM and a TGI (HOP-92 NSCLC) of 10.9 µM. It also gave a TGI (RXF 393 renal) of 25.2 µM, a TGI (NCI-H23 lung) of 27 µM and a TGI (NCI/ADR-RES ovarian) of 28.9 µM. It also gave a TGI (COLO 205 colon) of 25.3 µM and a TGI (NCI-H226 lung) of 23 µM.

Reference: PubChem BioAssay (NCI)
